Measurements published in US20100311726A1, “REDUCTION OF BETA-AMYLOID LEVELS BY TREATMENT WITH THE SMALL MOLECULE DIFFERENTIATION-INDUCING FACTOR” (priority 2007, published 2010).

Experiments:
[1] = system: naïve CHO cells; assay: Flow cytometry cell cycle distribution, naive CHO; type: cell-based, Chinese Hamster; details: 25 μM overnight
Description: Naïve and CHO-7W cells were collected by trypsin/EDTA treatment and counted using a haemocytometer. The cells (1×10^5) were deposited into 10 cm tissue culture dishes containing fresh media and grown for 24 hours prior to DIF-1 treatment (25 μM). Cells were grown in the presence of DIF-1 for approximately 20 hours. Cells harvested by the trypsin/EDTA treatment were suspended in hypotonic fluorochrome solution containing 50 ug/ml of propidium iodide, 0.1% sodium citrate, and 0.1% Triton X-100. Cells (5×10^4) for each sample were analyzed for fluorescence using the Massachusetts General Hospital cytology core. Cell cycle distribution was compared between vehicle and DIF-1 treated nave CHO cells, and CHO-7W cells. The percentage of cells in G0/G1, S-phase and G2/M represents the mean cell number±the standard deviation from at least 3 separate experiments.
To determine where in the cell cycle DIF-1 acts, we assessed the cell cycle distribution of naïve CHO cells using flow cytometry (FIG. 1B). CHO cells were incubated with DIF-1 (25 μM) for the indicated periods and then harvested by the trypsin/EDTA treatment, fixed and stained with propidium iodide (PI) and fluorescence of nuclei was measured. Histogram peaks are labeled by phases (G0/G1, S and G2/M). The percentages of cell number in the cell cycle phases are shown as means+/−S.E. of three independent experiments performed in duplicate. […]

[2] = system: Aβ42; assay: Secreted Aβ42 sandwich ELISA of conditioned media; type: cell-based, human
Description: (§1) The levels of secreted Aβ from CHO-7W cells stably overexpressing APP^751 and CHO-CAB cells that overexpress APP^751 and human BACE1 was quantified by ELISA and viewed by western blot using the monoclonal anti-APP antibody (6E10) that recognizes residues 1-17 of Aβ. Cells (5×10^5) were deposited into 6-well tissue culture dishes in triplicate and allowed to settle and grow for 24 hours. At this time, the media was aspirated and the cells were washed 2× in warm PBS. Fresh media (2 mL) and media supplemented with vehicle or DIF-1 was added to each well. […] Since DIF-1 exerts a cytostatic effect, the cell number was counted for all treatments upon removal of the conditioned media and used to normalize the levels of Aβ. […] The concentration of Aβ40 and Aβ42 was subsequently detected in triplicate using the β-Amyloid 1-40 or 1-42 Colorimetric ELISA kit (Biosource International, Inc.) according to the manufacturer's instructions.
We then looked at what effect this had on the levels of secreted soluble APP and Aβ production. […] The conditioned media was analyzed using anti-APP antibody 6E10 in order to detect total βP levels and sαAPP levels since it recognizes the amino acids 1-17 of Aβ and thus cannot detect sβAPP. […] The blots were analyzed using a phosphorimager. […]

[3] = system: notch intracellular domain (NICD); assay: Notch intracellular domain (NICD) level; type: cell-based
[4] = system: secreted APP and Aβ; assay: Secreted APP and total Aβ in conditioned media by western blot; type: cell-based, human; details: CHO-7W, 30 μM, antibody 6E10
Description: as §1
We then looked at what effect this had on the levels of secreted soluble APP and Aβ production. […] The conditioned media was analyzed using anti-APP antibody 6E10 in order to detect total βP levels and sαAPP levels since it recognizes the amino acids 1-17 of Aβ and thus cannot detect sβAPP. […] The blots were analyzed using a phosphorimager.

[5] = system: APP; assay: APP processing (mature APP, αCTF, βCTF) by western blot; type: cell-based, human; details: CHO-CAB

## CCCCCC(=O)c1c(O)c(Cl)c(OC)c(Cl)c1O [DIF-1, 1-[3,5-dichloro-2,6-dihydroxy-4-methoxyphenyl]-1-hexanone]
[1]
  percentage of cells in G0/G1: 52.6%±0.9
[2]; CHO-7W, 30 μM overnight
  reduction of secreted Aβ42: 63.9±7.15%
[2]; conditioned media from either CHO-7W or CHO-CAB cells
  reduction of secreted levels of Aβ42: 66.9±2.6%
[3]
  effect on notch intracellular domain (NICD): no effect
[4]
  level of total Aβ in conditioned media by western blot: reduced the level of total Aβ
  level of total secreted APP in conditioned media: reduced the level of total secreted APP
[5]; 30 μM DIF-1 with 10 μM lactacystin
  effect on lactacystin-induced CTF accumulation: greatly reduced the effect of lactacystin
[5]; DIF-1 with 10 μM ALLN
  effect on ALLN-induced CTF accumulation: reduced the effect of ALLN on APP processing
